According to patent US6642392B1 (priority 1997, dated 2003):

Columns and labels:
Format in all cases: in vivo
[1] = test system: Eiysiphe graminis f. sp. tritici; experiment: Test A: wheat powdery mildew, preventive spray on wheat seedlings; settings: wheat seedlings sprayed to run-off, inoculated the following day; rating relative to controls; unmarked compounds (standard test rate)
Outline: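 Compounds (3% acetone, 250 ppm Trem 014) sprayed to run-off on wheat seedlings, inoculated next day with spore dust. Incubated 7 days at 20° C before disease rating, 0–100% control relative to untreated controls.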

[2] = test system: Puccinia recondita; experiment: Test B: wheat leaf rust, preventive spray on wheat seedlings; settings: wheat seedlings sprayed to run-off, inoculated the following day; rating relative to controls; unmarked compounds (standard test rate)
Outline: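 Wheat seedlings were sprayed to run-off with compound (3% acetone, 250 ppm Trem 014), then inoculated with P. recondita spores the next day. They were held 24 h saturated at 20 °C, then 6 days at 20 °C. Ratings are 0–100% disease control versus controls.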

[3] = test system: Pyricularia oryzae; settings: rice seedlings sprayed to run-off, inoculated the following day; rating relative to controls; unmarked compounds (standard test rate)
[4] = test system: Phytophthora infestans; settings: tomato seedlings sprayed to run-off, inoculated the following day; rating relative to controls; unmarked compounds (standard test rate)
[5] = test system: Botrytis cinerea; experiment: Test E: gray mold, preventive spray on cucumber seedlings; settings: cucumber seedlings sprayed to run-off, inoculated the following day; rating relative to controls; unmarked compounds (standard test rate)
Outline: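 Compounds in 3% acetone were suspended with 250 ppm Trem 014 surfactant and sprayed to run-off on cucumber seedlings. B. cinerea spores were inoculated next day, then 48 h saturated humidity at 20° C and 5 days at 20° C. Disease control rated 0–100% versus controls.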

Row | Compound | Test A disease control rating (100 = 100% disease control, 0 = no disease control) [1] | Test B disease control rating (100 = 100% disease control, 0 = no disease control) [2] | Test C disease control rating (100 = 100% disease control, 0 = no disease control) [3] | Test D disease control rating (100 = 100% disease control, 0 = no disease control) [4] | Test E disease control rating (100 = 100% disease control, 0 = no disease control) [5]
1 | CC(COc1cc(C(C)(C)C)ccc1C#N)NC(=O)C(C#N)C(C)(C)C (mixture of isomers) [compound 305] | 0% | 0% | 53% | 0% | 0%
2 | CCC(C)c1ccccc1OCC(C)NC(=O)C(C#N)C(C)(C)C (mixture of isomers) [compound 306] | 0% | 67% | 99% | 0% | 94%
3 | CC(C=Cc1ccccc1C#N)NC(=O)C(C#N)C(C)(C)C (mixture of isomers) [compound 307] | 36% | 0% | 94% | 0% | 0%
4 | CC(C=Cc1ccccc1F)NC(=O)C(C#N)C(C)(C)C (mixture of isomers) [compound 308] | 86% | 28% | 100% | 45% | 0%
5 | CC(C=Cc1ccc(F)cc1F)NC(=O)C(C#N)C(C)(C)C (mixture of isomers) [compound 309] | 86% | 0% | 91% | 23% | 0%
6 | CC(COc1ccccc1)NC(=O)C1(C)C(C)C1(Cl)Cl (mixture of isomers) [compound 310] | 84% | 25% | 53% | 0% | 18%
7 | CC(COc1ccccc1)NC(=O)C1(C)CC1(Cl)Cl (mixture of isomers) [compound 311] | 84% | 0% | 0% | 0% | 0%
8 | CC(COc1ccccc1C(F)(F)F)NC(=O)C1(C)CC1(Cl)Cl (mixture of isomers) [compound 312] | 0% | 0% | 0% | 82% | 0%
9 | CC(COc1ccccc1Br)NC(=O)C1(C)CC1(Cl)Cl (mixture of isomers) [compound 313] | 0% | 0% | 26% | 32% | 47%
10 | C=CCc1ccccc1OCC(C)NC(=O)C1(C)CC1(Cl)Cl (mixture of isomers) [compound 314] | 0% | 0% | 72% | 0% | 0%
11 | CC(COc1ccccc1F)NC(=O)C1(C)CC1(Cl)Cl (mixture of isomers) [compound 315] | 60% | 99% | 51% | 16% | 0%
12 | CCC1(C(=O)NC(C)COc2c(F)cccc2C#N)C(C)C1(Cl)Cl (mixture of isomers) [compound 316] | 0% | 0% | 53% | 0% | 0%
